Results reported in patent publication US20080009573A1, “Labeled tackifiers” (priority 2006, published 2008).

melting point: 64 to 66 °C
SMILES: C=CCN1C(=O)c2cccc3c(CNCCOC(=O)C4(C)CCCC5(C)C6CCC(C(C)C)=CC6=CCC45)ccc(c23)C1=O (stereo not shown) [Compound 17, 7-Isopropyl-1,4a-dimethyl-1,2,3,4,4a,4b,5,6,10,10a-decahydro-phenanthrene-1-carboxylic acid 2-[(2-allyl-1,3-dioxo-2,3-dihydro-1H-benzo[de]isoquinolin-6-yl)methylamino]ethyl ester]
